Molecules are shown by their SMILES.

The results in this text go back to US7435837B2, “Dihydrobenzofuranyl alkanamine derivatives and methods for using same” (Wyeth, priority 2003, dated 2008).

Assay [1] addresses T1, human 5-hydroxytryptamine-2C (h5-HT2C) receptor (Homo sapiens, UniProt P28335).
T1 construct: expressed in transfected cells; host or cells: CHO (Chinese Hamster Ovary) cells; membranes
T1 sequence (P28335 33-458): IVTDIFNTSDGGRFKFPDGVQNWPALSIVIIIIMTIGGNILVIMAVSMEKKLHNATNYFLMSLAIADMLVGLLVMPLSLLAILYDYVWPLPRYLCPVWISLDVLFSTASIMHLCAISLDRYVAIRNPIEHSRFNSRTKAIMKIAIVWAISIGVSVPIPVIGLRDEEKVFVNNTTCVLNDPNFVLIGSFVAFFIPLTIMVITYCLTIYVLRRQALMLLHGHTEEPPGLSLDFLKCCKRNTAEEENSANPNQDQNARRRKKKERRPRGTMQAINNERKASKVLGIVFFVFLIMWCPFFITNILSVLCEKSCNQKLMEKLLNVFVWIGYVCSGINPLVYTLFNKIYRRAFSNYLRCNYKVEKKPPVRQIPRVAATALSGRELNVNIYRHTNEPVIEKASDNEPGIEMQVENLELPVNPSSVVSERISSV
Kind of assay: [125I]DOI binding to membranes of CHO cells expressing the human 5-HT2C receptor. Particulars: [125I]DOI radioligand, CHO cell membranes, room temperature 60 min; read-out: 5-HT2C Affinity Ki.

A further assay deals with T2, human 5-HT2C receptor (Homo sapiens, UniProt P28335).
T2 sequence (P28335 33-458): T1 sequence (P28335 33-458)
In words: 5-HT2C receptor-stimulated calcium mobilization (FLIPR) in CHO cells.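 On all read-outs here: Fluo-3-AM fluorescence read on FLIPR every 1 s, agonist added after 10 baseline reads, response taken as peak minus lowest raw fluorescence count.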 The format is cell-based. The following applies: for Emax: CHO, read-out: 5-HT2C Function Emax (%); for Emax / 5-HT2C Function Emax (%): percentage of the response observed with a maximally effective concentration of 5-HT; for EC50: calcium mobilization, CHO cells stably expressing human 5-HT2C, read-out: 5-HT2C Function EC50. In general terms: Calcium assays in cells follow changes in intracellular calcium, usually with a dye or a luminescent sensor.

For orientation: Ki means the dissociation constant of the complex between target and ligand, obtained from inhibition or displacement. Broadly, the Emax is the size of the effect at its maximum, as opposed to the concentration needed. Usually EC50 stands for the concentration at which the effect is half-maximal. On to `CNCC1Cc2cc(C(F)(F)F)cc(-c3ccccc3)c2O1` (racemic) [Example 518, (±)-{[N-methyl-1-[7-phenyl-5-(trifluoromethyl)-2,3-dihydro-1-benzofuran-2-yl]methanamine], for which the Ki in assay [1] amounted to 40 nM. Also, on human 5-HT2C receptor, the Emax was 80% and the EC50 was 384 nM.
As for `CC(C)(C)c1cc(Cl)cc2c1OC(CN)C2` (single isomer, unassigned; (+)) [Example 29, (+)-1-(7-tert-butyl-5-chloro-2,3-dihydro-1-benzofuran-2-yl)methanamine], the Ki in assay [1] stood at 35 nM. Also, at human 5-HT2C receptor, the EC50 came out at 229 nM and the “5-HT2C Function Emax (%)” value came to 80%.
For `COc1cccc(-c2cccc3c2OC(CN)C3)c1` (single isomer, unassigned; (+)) [Example 133, (+)-1-[7-(3-methoxyphenyl)-2,3-dihydro-1-benzofuran-2-yl]methanamine], the Ki in assay [1] stood at 3.6 nM. On human 5-HT2C receptor, the Emax was determined as 80% and the concentration for a half-maximal effect (EC50) is 66 nM.
As to `CNCC1Cc2cc(C)cc(-c3cc(Cl)ccc3Cl)c2O1` (single isomer, unassigned; (-)) [Example 488, (−)-{[7-(2,5-dichlorophenyl)-5-methyl-2,3-dihydro-1-benzofuran-2-yl]methyl}methylamine], the Ki in assay [1] amounted to 0.34 nM. In addition, on human 5-HT2C receptor, the EC50 turned out to be 132 nM and the “5-HT2C Function Emax (%)” value is reported as 90%.
With `CNCC1Cc2cccc(-c3ccc(F)cc3)c2O1` (racemic) [Example 419, (±)-[(N-methyl-1-[7-(4-fluorophenyl)-2,3-dihydro-1-benzofuran-2-yl]methanamine], in assay [1], the inhibition constant Ki was determined as 3.8 nM. At human 5-HT2C receptor, the Emax is 80% and the EC50 was found to be 1360 nM.
In the case of `Cc1cc2c(c(-c3ccc(Cl)cc3Cl)c1)OC(CN)C2` (racemic) [Example 297, (±)-{[7-(2,4-dichlorophenyl)-5-methyl-2,3-dihydro-1-benzofuran-2-yl]methyl}amine], the Ki in assay [1] worked out at 0.56 nM. On human 5-HT2C receptor, the Emax is 100% and the EC50 stood at 0.73 nM.
Consider `CNCC1Cc2cccc(-c3ccc(OC)cc3)c2O1` (racemic) [Example 421, (±)-[(N-methyl-1-[7-(4-methoxyphenyl)-2,3-dihydro-1-benzofuran-2-yl]methanamine], for which the Ki in assay [1] was 1.5 nM. Moreover, on human 5-HT2C receptor, the Emax stood at 70% and the EC50 worked out at 93 nM.
On to `NCC1Cc2cc(Cl)cc(-c3ccccc3)c2O1` (single isomer, unassigned; (+)) [Example 85, (+)-1-(5-chloro-7-phenyl-2,3-dihydro-1-benzofuran-2-yl)methanamine], for which the Ki in assay [1] worked out at 5 nM. Further, on human 5-HT2C receptor, the Emax stood at 100% and the EC50 was determined as 557 nM.
With `CNCC1Cc2cc(F)cc(-c3cc(F)ccc3F)c2O1` (racemic) [Example 448, (±)-{[7-(2,5-difluorophenyl)-5-fluoro-2,3-dihydro-1-benzofuran-2-yl]methyl}methylamine], the Ki in assay [1] stood at 7 nM. On human 5-HT2C receptor, the Emax came out at 70% and the EC50 stood at 78 nM.
Take `NCC1Cc2cc(F)cc(-c3c(Cl)cccc3Cl)c2O1` (racemic) [Example 230, (±)-{[7-(2,6-dichlorophenyl)-5-fluoro-2,3-dihydro-1-benzofuran-2-yl]methyl}amine]: the Ki in assay [1] worked out at 0.6 nM. On human 5-HT2C receptor, the Emax amounted to 90% and the EC50 amounted to 48 nM.
For `CNCC1Cc2cc(F)cc(-c3ccccc3C)c2O1` (single isomer, unassigned; (-)) [Example 441, (−)-{[5-fluoro-7-(2-methylphenyl)-2,3-dihydro-1-benzofuran-2-yl]methyl}methylamine] the same measures were 10 nM, 70% and 531 nM.
For `COc1cc2c(c(-c3ccccc3F)c1)OC(CN)C2` (racemic) [Example 356, (±)-{[7-(2-fluorophenyl)-5-methoxy-2,3-dihydro-1-benzofuran-2-yl]methyl}amine], the Ki in assay [1] was determined as 0.63 nM. For the same compound, on human 5-HT2C receptor, the Emax is 100% and the EC50 worked out at 63 nM.
On to `NCC1Cc2cc(F)cc(-c3cccnc3)c2O1` (racemic) [Example 206, (±)-[(5-fluoro-7-pyridin-3-yl-2,3-dihydro-1-benzofuran-2-yl)methyl]amine], for which the Ki in assay [1] came out at 1.7 nM. Further, on human 5-HT2C receptor, the Emax was 90% and the EC50 came to 4 nM.
In the case of `NCC1Cc2cccc(-c3ccc(Cl)cc3)c2O1` (racemic) [Example 76, (±)-1-[7-(4-chlorophenyl)-2,3-dihydro-1-benzofuran-2-yl]methanamine], in assay [1], the Ki was 3 nM. Also, at human 5-HT2C receptor, the Emax amounted to 90% and the EC50 was found to be 25 nM.
For `Cc1cccc(C)c1-c1cc(Cl)cc2c1OC(CN)C2` (single isomer, unassigned; (-)) [Example 261, (−)-{[5-chloro-7-(2,6-dimethylphenyl)-2,3-dihydro-1-benzofuran-2-yl]methyl}amine], in that order: 0.5 nM, 90% and 67 nM.
In the case of `CNCC1Cc2cc(C)cc(-c3c(C)cccc3C)c2O1` (racemic) [Example 489, (±)-{[7-(2,6-dimethylphenyl)-5-methyl-2,3-dihydro-1-benzofuran-2-yl]methyl}methylamine], the Ki in assay [1] stood at 3 nM. Further, at human 5-HT2C receptor, the maximal effect (Emax) was 90% and the EC50 worked out at 39 nM.
For `COc1ccc(-c2cc(C(F)(F)F)cc3c2OC(CN)C3)c(OC)c1` (racemic) [Example 333, (±)-{[7-(2,4-dimethoxyphenyl)-5-(trifluoromethyl)-2,3-dihydro-1-benzofuran-2-yl]methyl}amine], in assay [1], the Ki came to 13 nM. Further, on human 5-HT2C receptor, the Emax was determined as 90% and the EC50 stood at 70 nM.
`NCC1Cc2cccc(Cc3ccccc3)c2O1` (single isomer, unassigned; (+)) [Example 16, (+)-1-(7-benzyl-2,3-dihydro-1-benzofuran-2-yl)methanamine]: the Ki in assay [1] came out at 274 nM. At human 5-HT2C receptor, the maximal response (Emax) was 65% and the EC50 was determined as 451 nM.
On to `NCC1Cc2cccc(-c3cccc(F)c3)c2O1` (single isomer, unassigned; (-)) [Example 132, (−)-1-[7-(3-fluorophenyl)-2,3-dihydro-1-benzofuran-2-yl]methanamine], for which the Ki in assay [1] was 20 nM. On human 5-HT2C receptor, the EC50 came to 1480 nM and the “5-HT2C Function Emax (%)” value is given as 50%.
In the case of `CNCC1Cc2cc(F)cc(-c3cc(C)ccc3C)c2O1` (racemic) [Example 452, (±)-{[7-(2,5-dimethylphenyl)-5-fluoro-2,3-dihydro-1-benzofuran-2-yl]methyl}methylamine], the Ki in assay [1] is 24 nM. For the same compound, on human 5-HT2C receptor, the Emax came to 80% and the concentration giving a half-maximal response (EC50) stood at 153 nM.
Regarding `CNCC1Cc2cccc(-c3cc(Cl)ccc3Cl)c2O1` (racemic) [Example 429, (±)-[(N-methyl-1-[7-(2,5-dichlorophenyl)-2,3-dihydro-1-benzofuran-2-yl]methanamine], the Ki in assay [1] was determined as 2.8 nM. For the same compound, on human 5-HT2C receptor, the Emax is 92% and the EC50 was found to be 16 nM.
In the case of `CC(C)c1ccccc1-c1cccc2c1OC(CN)C2` (single isomer, unassigned; (+)) [Example 62, (+)-[7-(2-isopropylphenyl)-2,3-dihydro-1-benzofuran-2-yl]methylamine], in assay [1], the Ki worked out at 40 nM. On human 5-HT2C receptor, the Emax was 70% and the EC50 was 130 nM.
